Assays:
[1] = biological target: T1, MC1-R (B-16 mouse melanoma cells) (Mus musculus, UniProt Q01727); experiment: Competitive inhibition binding assay, 125I-NDP-α-MSH, MC1-R; conditions: 1 μM compound; inhibition of 125I-NDP-α-MSH binding; mean of triplicates; results less than 0% reported as 0%
T1 construct: B-16 mouse melanoma cells (containing MC1-R); endogenous in cells; host or cells: B-16 mouse melanoma cells
Summary of the method: (§1)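 Membranes from hMC3-R, hMC4-R or hMC5-R cells, or B-16 mouse melanoma cells (MC1-R), were incubated 90 min at room temperature with 0.4 nM 125I-NDP-α-MSH in HEPES pH 7.2 with Mg2+/Ca2+/K+, and test compound generally at 1 μM. Filter-bound radioactivity was gamma counted. Specific binding was defined with 1 μM α-MSH; triplicate means.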

[2] = biological target: T1, MC1-R (B-16 mouse melanoma cells); experiment: cAMP assay for agonist/antagonist status, MC1-R; format: cell-based
Experimental: (§2) The Ki (nM) of certain peptidomimetics were determined, as was the agonist/antagonist status with respect to MC4-R, Functional evaluation of compounds at melanocortin receptors was performed by measuring the accumulation of intracellular cAMP in HEK-293 cells expressing MC3-R, MC4-R or MC5-R, and in B-16 mouse melanoma cells (containing MC1-R). Antagonistic activity was determined by measuring the inhibition of α-MSH-induced cAMP levels following exposure to the compounds. Cells, suspended in Earle's Balanced Salt Solution containing 10 mM HEPES, pH 7.5, 5 mM MgCl2, 1 mM glutamine, 0.1% albumin and 0.6 mM 3-isobutyl-1-methyl-xanthine, a phosphodiesterase inhibitor, were plated in 96 well plates at a density of 0.5×10^5 cells per well. Cells were incubated with the test compounds in the presence or absence of α-MSH for 1 hour at 37° C. cAMP levels were measured by EIA (Amersham) in the cell lysates. Data analysis and EC50 values were determined using nonlinear regression analysis with Prism Graph-Pad software.

MC4-R (HEK-293 cells) = biological target: T2, MC4-R (HEK-293 cells) (Homo sapiens, UniProt P32245); experiment: cAMP assay for agonist/antagonist status, MC4-R; format: cell-based
T2 construct: expressed in transfected cells; host or cells: HEK-293
T2 sequence (P32245 whole entry): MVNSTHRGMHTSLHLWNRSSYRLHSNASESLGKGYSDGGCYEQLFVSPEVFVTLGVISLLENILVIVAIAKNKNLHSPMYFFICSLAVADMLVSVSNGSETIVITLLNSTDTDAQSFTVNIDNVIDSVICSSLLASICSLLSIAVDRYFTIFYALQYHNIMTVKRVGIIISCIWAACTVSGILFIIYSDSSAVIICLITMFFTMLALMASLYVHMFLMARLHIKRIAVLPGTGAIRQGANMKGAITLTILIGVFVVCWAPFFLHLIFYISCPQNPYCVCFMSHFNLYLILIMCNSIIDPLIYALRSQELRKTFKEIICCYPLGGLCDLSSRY
Experimental: as §2

MC5-R (HEK-293 cells) = biological target: T3, MC5-R (HEK-293 cells) (Homo sapiens, UniProt P33032); experiment: cAMP assay for agonist/antagonist status, MC5-R; format: cell-based
T3 construct: expressed in transfected cells; host or cells: HEK-293
T3 sequence (P33032 whole entry): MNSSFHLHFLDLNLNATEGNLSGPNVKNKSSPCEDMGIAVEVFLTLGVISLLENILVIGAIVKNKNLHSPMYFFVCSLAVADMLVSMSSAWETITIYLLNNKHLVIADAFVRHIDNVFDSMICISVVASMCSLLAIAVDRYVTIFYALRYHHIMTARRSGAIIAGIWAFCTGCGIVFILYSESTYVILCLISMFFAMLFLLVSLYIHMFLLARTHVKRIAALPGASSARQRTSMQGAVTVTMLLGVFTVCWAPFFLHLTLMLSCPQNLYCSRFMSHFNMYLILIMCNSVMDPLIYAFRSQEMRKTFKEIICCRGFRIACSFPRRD
Experimental: as §2

MC3-R = MC3-R (Homo sapiens, UniProt P41968); experiment: Competitive inhibition binding assay, 125I-NDP-α-MSH, MC3-R; design: expressed in transfected cells; conditions: 1 μM compound; inhibition of 125I-NDP-α-MSH binding; mean of triplicates; results less than 0% reported as 0%
Chain of MC3-R (P41968 whole entry): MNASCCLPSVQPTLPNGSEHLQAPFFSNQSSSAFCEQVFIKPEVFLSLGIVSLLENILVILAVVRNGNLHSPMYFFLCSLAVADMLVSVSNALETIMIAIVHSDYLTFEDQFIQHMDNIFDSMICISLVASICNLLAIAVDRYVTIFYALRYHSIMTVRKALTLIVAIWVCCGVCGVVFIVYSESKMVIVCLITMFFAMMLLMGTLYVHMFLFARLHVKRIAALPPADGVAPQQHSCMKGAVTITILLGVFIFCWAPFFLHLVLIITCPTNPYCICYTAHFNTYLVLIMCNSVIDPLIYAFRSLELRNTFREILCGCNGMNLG
Summary of the method: as §1

MC4-R = MC4-R (Homo sapiens, UniProt P32245); experiment: Competitive inhibition binding assay, 125I-NDP-α-MSH, MC4-R; design: expressed in transfected cells; conditions: 1 μM compound; inhibition of 125I-NDP-α-MSH binding; mean of triplicates; results less than 0% reported as 0%
Chain of MC4-R (P32245 whole entry): as the sequence (P32245 whole entry) above
Summary of the method: as §1

MC5-R = MC5-R (Homo sapiens, UniProt P33032); experiment: Competitive inhibition binding assay, 125I-NDP-α-MSH, MC5-R; design: expressed in transfected cells; conditions: 1 μM compound; inhibition of 125I-NDP-α-MSH binding; mean of triplicates; results less than 0% reported as 0%
Chain of MC5-R (P33032 whole entry): as the sequence (P33032 whole entry) above
Summary of the method: as §1

T1 sequence (Q01727 whole entry): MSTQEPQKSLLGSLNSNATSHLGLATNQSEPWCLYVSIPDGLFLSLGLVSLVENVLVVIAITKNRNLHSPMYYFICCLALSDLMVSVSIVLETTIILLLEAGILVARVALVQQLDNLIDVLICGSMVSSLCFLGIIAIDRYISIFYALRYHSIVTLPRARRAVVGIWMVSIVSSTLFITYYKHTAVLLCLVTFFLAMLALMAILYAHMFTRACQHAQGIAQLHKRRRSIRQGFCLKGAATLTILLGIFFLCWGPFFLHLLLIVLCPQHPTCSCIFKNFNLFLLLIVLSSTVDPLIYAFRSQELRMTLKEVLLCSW

## NCCCC[C@H]1C(=O)N(CCc2ccc3ccccc3c2)CCN1C(=O)[C@@H](Cc1ccc(Cl)cc1Cl)NC(=O)[C@H]1CC[C@@H](c2ccccc2)N1 [Example 27]
[1]
  Inhibition at 1 μM MC1-R: 0%
[2]
  agonist/antagonist status as to MC1-R: agonist
MC4-R (HEK-293 cells)
  agonist/antagonist status as to MC4-R: agonist
MC5-R (HEK-293 cells)
  agonist/antagonist status as to MC5-R: agonist
MC3-R
  Inhibition at 1 μM MC3-R: 9%
MC4-R
  Inhibition at 1 μM MC4-R: 71%
MC5-R
  Inhibition at 1 μM MC5-R: 46%

## NCCC[C@H]1C(=O)N(CCc2ccc3ccccc3c2)CCN1C(=O)[C@@H](Cc1ccc(Cl)cc1Cl)NC(=O)[C@@H](N)COCc1ccccc1 [Example 52]
[1]
  Inhibition at 1 μM MC1-R: 36%
[2]
  agonist/antagonist status as to MC1-R: agonist
MC4-R (HEK-293 cells)
  agonist/antagonist status as to MC4-R: agonist
MC5-R (HEK-293 cells)
  agonist/antagonist status as to MC5-R: agonist
MC3-R
  Inhibition at 1 μM MC3-R: 25%
MC4-R
  Inhibition at 1 μM MC4-R: 94%
MC5-R
  Inhibition at 1 μM MC5-R: 63%

## NCCCC[C@H]1C(=O)N(CCc2ccc3ccccc3c2)CCN1C(=O)[C@@H](Cc1ccc(Cl)cc1Cl)NC(=O)CCc1ccccc1 [Example 36]
[1]
  Inhibition at 1 μM MC1-R: 72%
[2]
  agonist/antagonist status as to MC1-R: agonist
MC4-R (HEK-293 cells)
  agonist/antagonist status as to MC4-R: antagonist
MC5-R (HEK-293 cells)
  agonist/antagonist status as to MC5-R: agonist
MC3-R
  Inhibition at 1 μM MC3-R: 22%
MC4-R
  Inhibition at 1 μM MC4-R: 92%
MC5-R
  Inhibition at 1 μM MC5-R: 34%

## N=C(N)NCCC[C@H]1C(=O)N(CCc2ccc3ccccc3c2)CCN1C(=O)[C@@H](Cc1ccc(Cl)cc1Cl)NC(=O)[C@@H](N)COCc1ccccc1 [Example 53]
[1]
  Inhibition at 1 μM MC1-R: 81%
[2]
  agonist/antagonist status as to MC1-R: agonist
MC4-R (HEK-293 cells)
  agonist/antagonist status as to MC4-R: agonist
MC5-R (HEK-293 cells)
  agonist/antagonist status as to MC5-R: agonist
MC3-R
  Inhibition at 1 μM MC3-R: 93%
MC4-R
  Inhibition at 1 μM MC4-R: 99%
MC5-R
  Inhibition at 1 μM MC5-R: 96%

## N=C(N)NCCC[C@H]1C(=O)N(CCc2ccc3ccccc3c2)CCN1C(=O)[C@H](N)Cc1ccc(Cl)cc1Cl [Example 51]
[1]
  Inhibition at 1 μM MC1-R: 22%
[2]
  agonist/antagonist status as to MC1-R: antagonist
MC4-R (HEK-293 cells)
  agonist/antagonist status as to MC4-R: agonist
MC5-R (HEK-293 cells)
  agonist/antagonist status as to MC5-R: agonist
MC3-R
  Inhibition at 1 μM MC3-R: 47%
MC4-R
  Inhibition at 1 μM MC4-R: 95%
MC5-R
  Inhibition at 1 μM MC5-R: 35%

## C[C@@H](OCc1ccccc1)[C@H](N)C(=O)N[C@H](Cc1ccc(Cl)cc1Cl)C(=O)N1CCN(CCc2ccc3ccccc3c2)C(=O)[C@@H]1CCCCN [Example 24]
[1]
  Inhibition at 1 μM MC1-R: 30%
[2]
  agonist/antagonist status as to MC1-R: agonist
MC4-R (HEK-293 cells)
  agonist/antagonist status as to MC4-R: agonist
MC5-R (HEK-293 cells)
  agonist/antagonist status as to MC5-R: agonist
MC3-R
  Inhibition at 1 μM MC3-R: 34%
MC4-R
  Inhibition at 1 μM MC4-R: 99%
MC5-R
  Inhibition at 1 μM MC5-R: 78%

## NCCCC[C@H]1C(=O)N(CCc2ccc3ccccc3c2)CCN1C(=O)[C@@H](Cc1ccc(Cl)cc1Cl)NC(=O)[C@@H]1Cc2ccccc2CN1 [Example 23]
[1]
  Inhibition at 1 μM MC1-R: 63%
[2]
  agonist/antagonist status as to MC1-R: agonist
MC4-R (HEK-293 cells)
  agonist/antagonist status as to MC4-R: agonist
MC5-R (HEK-293 cells)
  agonist/antagonist status as to MC5-R: agonist
MC3-R
  Inhibition at 1 μM MC3-R: 62%
MC4-R
  Inhibition at 1 μM MC4-R: 100%
MC5-R
  Inhibition at 1 μM MC5-R: 80%

## NCCCC[C@H]1C(=O)N(CCc2ccc3ccccc3c2)CCN1C(=O)[C@@H](Cc1ccc(Cl)cc1Cl)NCc1ccc(-c2ccccc2)cc1 [Example 39]
[1]
  Inhibition at 1 μM MC1-R: 0%
[2]
  agonist/antagonist status as to MC1-R: antagonist
MC4-R (HEK-293 cells)
  agonist/antagonist status as to MC4-R: antagonist
MC5-R (HEK-293 cells)
  agonist/antagonist status as to MC5-R: agonist
MC3-R
  Inhibition at 1 μM MC3-R: 4%
MC4-R
  Inhibition at 1 μM MC4-R: 85%
MC5-R
  Inhibition at 1 μM MC5-R: 9%

## NCCCC[C@H]1C(=O)N(CCc2ccc3ccccc3c2)CCN1C(=O)[C@@H](Cc1ccc(Cl)cc1Cl)NC(=O)c1ccc(Oc2ccccc2)cc1 [Example 37]
[1]
  Inhibition at 1 μM MC1-R: 35%
[2]
  agonist/antagonist status as to MC1-R: antagonist
MC4-R (HEK-293 cells)
  agonist/antagonist status as to MC4-R: antagonist
MC5-R (HEK-293 cells)
  agonist/antagonist status as to MC5-R: agonist
MC3-R
  Inhibition at 1 μM MC3-R: 51%
MC4-R
  Inhibition at 1 μM MC4-R: 99%
MC5-R
  Inhibition at 1 μM MC5-R: 51%

— US7807678B2, “Peptidomimetics of biologically active metallopeptides” (Palatin Technologies, Inc., priority 2001, dated 2010)
